In patent US20250241906A1, “ANABOLIC DRUGS STIMULATING TYPE II COLLAGEN PRODUCTION FROM CHONDROCYTES OR THEIR PROGENITORS” (UNIVERSITY OF CENTRAL FLORIDA RESEARCH FOUNDATION, INC., priority 2022, published 2025):
Where a name gives a salt, the structure may show the parent alone.

System: type II collagen promoter (COL2A1-Gaussia luciferase) in primary human chondrocytes
Assay: HuCol2gLuc 3D aggregate type II collagen promoter-driven Gaussia luciferase assay
Format: cell-based
Settings: for stimulation of type II collagen production in the screen of natural products: NCI Natural Products Set V, 5 μM continuously, 22-day assay
Description: Chondrogenic Culture. Human COL2A1-GLuc or uninfected cells were thawed and seeded in growth media on synoviocyte matrix at 6,000 cells/cm^2 and expanded to 90-100% confluence in physioxia. Cells were trypsinized (0.25% Trypsin/EDTA; Corning), resuspended in growth media (for monolayer culture) or chondrogenic differentiation media for 3D aggregates (93.24% High-Glucose DMEM (Gibco), 1% dexamethasone 10^−5M (Sigma), 1% ITS+premix (Becton-Dickinson), 1% Glutamax (Hyclone), 1% 100 mM Sodium Pyruvate (Hyclone), 1% MEM Non-Essential Amino Acids (Hyclone), 0.26% L-Ascorbic Acid Phosphate 50 mM (Wako), 0.5% Fungizone (Life Technologies) with TGF-β1 (Peprotech) and seeded as described below.
Generation and Maintenance of 3D aggregates. To generate 3D aggregates, cells were seeded at 50,000 cells per well (in 96-well cell repellent u-bottom plates, GreinerBio) and then centrifuged at 500 RCF, 5 min. For the initial drug screen, aggregates were cultured in basal chondrogenic media (1 ng/ml TGF-β1) alone, with DMSO (vehicle control) or 5 μM of the drug compounds from the NCI library (Natural Products V, NCI). For candidate validation and subsequent studies aggregates were cultured in basal chondrogenic media (10 ng/ml TGF-β1) alone, with DMSO (vehicle control) or compounds as indicated in the results. Aggregates were cultured for three weeks in physioxic conditions, culture medium was sampled and replaced three times a week with fresh medium. An OT-2 (Opentrons) python coded robotic pipette, programmed at an aspiration height of 2 mm from the bottom of the wells and aspiration rate of 40 μl/s was utilized for addition of compound, cell feeding, and media sampling for luciferase assay. After three weeks, cell aggregates were either fixed in neutral buffered formalin for histology or medium removed and aggregates frozen dry (−20° C.) for biochemical assays.
Luciferase Assay. Conditioned culture medium sampled from aggregates in 96-wells (20 μL/well) was assessed using a stabilized Gaussia Luciferase buffer mix (50 µl/well) for a final concentration of 0.09 M MES, 0.15M Ascorbic Acid, and 4.2 μM Coelenterazine in white 96-well plates. Luminescence was measured in a plate reader (25° C., relative light units (RLU), En Vision plate reader). An OT-2 (Opentrons) python coded robotic pipette was utilized for luciferase buffer addition to white plates (GreinerBio).

Compound	stimulation of type II collagen production in the screen of natural products	further results
6-Hydroxy-2-methoxyaporphine	stimulate type II collagen	
COc1cc2c3c(c1O)-c1cc(O)ccc1CC3N(C)CC2 (stereo not drawn) [1,10-Dihydroxy-2-methoxyaporphine]	stimulate type II collagen	
Nc1ncnc2c1ncn2C1C=C(CO)C(O)C1O (stereo not drawn) [5-(6-Aminopurin-9-yl)-3-(hydroxymethyl)cyclopent-3-ene-1,2-diol]	stimulate type II collagen	
COc1cc2c3c(c1O)-c1cc(O)ccc1C[C@@H]3N(C)CC2 [(-)-Apoglaziovine]	stimulate type II collagen	
c1ccc(N2CCN(Cc3nc4ccccc4[nH]3)CC2)nc1 [ABT 724, reference compound]		luminescence vs untreated control (donor 2, 0.1 μM or 1 μM): no effect; cumulative luminescence vs untreated controls (donor 2, 10 μM and 25 μM): significant increase in luminescence; luminescence vs untreated control (donor 2, 10 μM and 25 μM, from day 8 to day 22): increase in luminescence
Nc1nc(=O)c2c([nH]1)NCC(CNc1ccc(C(=O)N[C@@H](CCC(=O)[O-])C(=O)[O-])cc1)N2C=O.[Ca+2] (stereo partly drawn) [Calcium folinate, reference compound]	stimulate type II collagen	
CC(C)=CC(=O)O[C@H]1[C@H]2[C@H](OC(=O)[C@H]2C)[C@H](O)[C@@H](C)[C@@H]2C=CC(=O)[C@]21C [Fastigilin B]	stimulate type II collagen	
Cl.Cl.Fc1ccc(N2CCN(CCC3OCCc4ccccc43)CC2)cc1 (stereo not drawn) [PNU 96415E, reference compound]		cumulative luminescence vs untreated controls (donor 2, 12.5 μM and 25 μM): significant increase in luminescence; luminescence vs untreated controls (donor 2, 12.5 μM and 25 μM): increased luminescence
C=C1C(=O)OC2C1CCC(C)C1(O)C=CC(=O)C21C (stereo not drawn) [Parthenicin]	stimulate type II collagen	
CC(=O)CCCCn1c(=O)c2c(ncn2C)n(C)c1=O [Pentoxifylline, reference compound]	stimulate type II collagen	
CC[C@]1(O)C[C@H]2CN(CCc3c([nH]c4ccccc34)[C@@](C(=O)OC)(c3cc4c(cc3OC)N(C=O)[C@H]3[C@@](O)(C(=O)OC)[C@H](OC(C)=O)[C@]5(CC)C=CCN6CC[C@]43[C@@H]65)C2)C1 [Vincristine sulfate, reference compound]	stimulate type II collagen	
Promoline [Drug 84]		luminescence over 22 days vs untreated control (validation, donor 2, 10 ng/ml TGF-β1): increased luminescence
